From patent US20170035713A1, “SYNERGISTIC COMBINATIONS OF CAROTENOIDS AND POLYPHENOLS” (LYCORED LTD., priority 2009, published 2017)

Key:
Assay type in all cases: cell-based, mouse
[1] = tested on: PGE2 production by peritoneal macrophages; experiment: PGE2 measurement (radio-immunoassay) in LPS-stimulated peritoneal macrophages; conditions: for inhibition of PGE2 production (in words): FIG. 5a/5b lower panel, lutein 0.5 μM, beta-Carotene 1 μM, carnosic acid 1 μM; for inhibition of PGE2 production: used alone, FIG. 4 / FIG. 5a upper panel, same set of experiments as FIG. 2
Description: (§1) Macrophage isolation and cell culture—Peritoneal macrophages were collected from the peritoneal cavity of 6-8 week old male ICR mice (Harlan, Israel) that had been given an intraperitoneal injection of 1.5 ml of thioglycollate broth (4%) 4 days before harvest. Peritoneal macrophages were washed three times with PBS and, if needed, a hypotonic lysis of erythrocytes was performed, yielding 90-95% purity. The macrophages were identified by FACS analysis using FITC-conjugated rat anti-mouse F4/80 (MCA497F) (Serotec, Oxford, England) by flow microfluorimetry on FACS (Becton Dickinson, Mountain View, Calif.). For each sample, 10,000 light scatter-gated viable cells were analyzed. Peritoneal macrophages and murine macrophage cell line RAW264.7 were cultured RPMI 1640 medium containing 10% FCS, 2 mM L-glutamine; 100 U/ml penicillin; 100 μg/ml streptomycin (Beit-Haemek, Israel) in 96-well plates (1×10^6 cells/well) at 37° C. in 5% CO2 atmosphere. Cells were stimulated with LPS (0.1-1 μg/ml) in the presence or absence of carnosic acid and/or one or more of the following carotenoids: carnosic acid, purified lycopene, lycopene-rich tomato extract (Lyc-O-Mato®; LycoRed Ltd., Be'er Sheva, Israel), lutein and beta-Carotene.
(§2) The carnosic acid and the various carotenoids were dissolved in DMSO (to a final concentration of 5 mM). The mixture was vortexed and incubated in a water bath at 37° C. (with shaking) for 10 min and then sonicated in a sonicator bath three times for 15 seconds each time. Using this stock solution the desired concentrations were prepared by the addition of appropriate volumes thereof to warm culture medium.
(§3) Appropriate volumes of DMSO (0.1-0.2%) were added to the controls and the percent inhibition in each test tube was calculated in relation to its control.
PGE2 measurement—Supernatants of resting and stimulated cells were collected and immediately stored at −70° C. PGE2 levels were determined by utilizing a dextran coated charcoal radio-immunoassay protocol as previously described (Dror N, Tveria L, Meniv I, Ben-Shmuel S, Filipovich T, Fleisher-Berkovich S., Regul Pept. 2008 150: 21-5).
Briefly, 100 μl sample or PGE2 standard (Sigma Israel, Rehovot, Israel) were incubated in the presence of 500 μl anti-PGE2 anti-serum (Sigma Israel, Rehovot, Israel) for 30 min. [^3H]PGE2 (Amersham Biosciences, NJ, USA) was added next for 24 h at 4° C. 24 h later, 200 […]μl cold dextran coated charcoal suspension was added to each tube and incubated for 10 min on ice. The tubes were centrifuged at 3500 RPM for 15 min at 4° C. 500 μl of supernatants containing [^3H]PGE2-anti-PGE2 complexes were counted (Packard Spectrometry 1900CA) and the amount of PGE2 was calculated.

[2] = tested on: macrophage superoxide production; experiment: Superoxide production by macrophages (ferricytochrome c reduction); conditions: optimal low concentrations
Description: Peritoneal macrophages were isolated and treated as described hereinabove in Example 1.
Superoxide production: The production of superoxide anion (O2^−) by macrophages was measured as the superoxide dismutase-inhibitable reduction of ferricytochrome c by the microtiter plate technique, as known in the prior art. An aliquot of radiolabelled macrophages (5× 10^5 cells/well) used for the adherence assay was taken and suspended in 100 μl incubation medium containing ferricytochrome c ([…]). Stimulation was induced with PMA (50 ng/ml). The reduction of ferricytochrome c was followed by a change of absorbance at 550 nm at 2 min intervals for 30 min on a Thermomax Microplate Reader (Molecular Devices, Melno Park, Calif., USA). The maximal rates of superoxide generation were determined and expressed as nanomoles O2^−/10^6 cells/10 min using the extinction coefficient E550=21 mM^−1 cm^−1.

[3] = tested on: NO production by peritoneal macrophages; experiment: NO production assay in LPS-stimulated peritoneal macrophages (Example 1)
Description: as §1, §2, §3
NO production assay—NO levels in supernatants of cell cultures were determined by assaying nitrite levels using Griess reagent and sodium nitrite as a standard as described in Green, L. C., Wagner, D. A., Glogowski, J., Skipper, P. L., Wishnok, J. S., and Tannenbaum, S. R. (1982) Anal Biochem. 126: 131-138.

[4] = tested on: LPS stimulated NO production by macrophages; experiment: NO production assay in LPS-stimulated peritoneal macrophages, curcumin, lutein and Lycomato (second Example 1)
Description: Macrophage isolation and cell culture—Peritoneal macrophages were collected from the peritoneal cavity of 6-8 week old male ICR mice (Harlan, Israel) that had been given an intraperitoneal injection of 1.5 ml of thioglycollate broth (4%) 4 days before harvest. Peritoneal macrophages were washed three times with PBS and, if needed, a hypotonic lysis of erythrocytes was performed, yielding 90-95% purity. The macrophages were identified by FACS analysis using FITC-conjugated rat anti-mouse F4/80 (MCA497F) (Serotec, Oxford, England) by flow microfluorimetry on FACS (Becton Dickinson, Mountain View, Calif.). For each sample, 10,000 light scatter-gated viable cells were analyzed. Peritoneal macrophages were cultured in RPMI 1640 medium containing 10% FCS, 2 mM L-glutamine; 100 U/ml penicillin; 100 μg/ml streptomycin (Beit-Haemek, Israel) in 96-well plates (2×10^5 cells/well) at 37° C. in 5% CO2 atmosphere. LycoMato, Lutein and curcumin-PC (Indena product) and, for comparison, LycoMato, Lutein and pure curcumin and their various combinations were added to the cells. One hour later, LPS (0.2 μg/ml) was added and the macrophages were cultured at 37° C. in a 5% CO2 atmosphere for 24 h.
Curcumin PC (Indena) was dissolved in Diethylene glycol monoethyl ether from Sigma (as recommended by Indena). The volume of solvent was 0.12% for 1 µM curcumin PC. The concentration of curcumin PC was calculated according to its content in the formula (Curcumin PC). Lycomato and Lutein or curcumin were dissolved in DMSO (the volume of DMSO in the test solution was 0.01% for either 1 […] Lycomato, Lutein or pure curcumin. The mixture was vortexed and shaken at 37° C. for 10 min and sonicated in a sonicator bath for 15 sec×3 times. From this stock solution the desired concentrations were made by addition of appropriate volumes to warm culture medium. The concentration of lycopene in solution was calculated to 1 ml of the highest final concentration 0.5 ml isopropanol+1.5 ml hexane/dichloromethane (1:5 V/V) containing 0.025% BHT. The solution is vortexed and the phases are separated by centrifugation 3000 rpm for 10 min. A spectrum was done to detect the level of nutrients.
To the controls appropriate volumes of DMSO and/or Diethylene glycol monoethyl ether were added and the percent inhibition of each test tube was calculated in relation to its control tube.
NO production assay—NO levels in supernatants of cell cultures were determined by assaying nitrite levels using Griess reagent and sodium nitrite as a standard.

[5] = tested on: TNF-alpha production by peritoneal macrophages; experiment: TNF-alpha production assay (ELISA) in LPS-stimulated peritoneal macrophages; conditions: FIG. 3; same set of experiments and concentrations as FIG. 2
Description: as §1, with “Cells were stimulated with LPS (0.1-1 μg/ml) in the presence or absence of carnosic acid and/or one or more of the following carotenoids: carnosic acid, purified lycopene, lycopene-rich tomato extract (Lyc-O-Mato®; LycoRed Ltd., Be'er Sheva, Israel), lutein and beta-Carotene.” left out
as §3
TNF-alpha production assay—Concentrations of TNF-alpha were quantified using ELISA kits (Biolegend Inc., San Diego, Calif.).

[6] = Mus musculus, Peritoneal macrophage, read-out: inhibition of NO production

## CC1=C(/C=C/C(C)=C/C=C/C(C)=C/C=C/C=C(C)/C=C/C=C(C)/C=C/C2=C(C)CCCC2(C)C)C(C)(C)CCC1 [beta-carotene]
[1]
  inhibition of PGE2 production (in words): neither lutein (0.5 μM) nor beta-Carotene (1 μM) alone affected PGE2 production
  inhibition of PGE2 production: around 20%
[2]; Mus musculus, Macrophage, alone, beta-carotene 2 μM
  inhibition at 2 µM: 10%

## CC(C)c1cc2c(c(O)c1O)[C@@]1(C(=O)O)CCCC(C)(C)[C@@H]1CC2 [carnosic acid]
[1]; Mus musculus, Peritoneal macrophage, read-out: inhibition of PGE2 production
  inhibition at 1 µM: 10%
[1]
  inhibition of PGE2 production: around 20%
[3]; [6]
  inhibition at 1 µM: 12%
  inhibition at 2 µM: 18%

## CC1=C[C@H](O)CC(C)(C)[C@H]1/C=C/C(C)=C/C=C/C(C)=C/C=C/C=C(C)/C=C/C=C(C)/C=C/C1=C(C)C[C@@H](O)CC1(C)C [lutein]
[4]; Mus musculus, Macrophage, 2 μM Curcumin-PC or pure Curcumin, 1 μM Lycomato, 1 μM Lutein, alone or combined, LPS 0.2 μg/ml, 24 h
  inhibition at 1 µM: 5 ± 0.9%
[1]
  inhibition of PGE2 production (in words): neither lutein (0.5 μM) nor beta-Carotene (1 μM) alone affected PGE2 production

## CC(C)=CCC/C(C)=C/C=C/C(C)=C/C=C/C(C)=C/C=C/C=C(C)/C=C/C=C(C)/C=C/C=C(\C)CCC=C(C)C [lycopene]
[3]; alone, range of 1-5 μM
  inhibition of NO production (in words): low level inhibition
[5]
  inhibition of TNF-alpha production (in words): lack of detectable inhibition
[2]; FIG. 9
  inhibition of superoxide production (in words): lack of detectable inhibition

## COc1cc(/C=C/C(=O)CC(=O)/C=C/c2ccc(O)c(OC)c2)ccc1O [pure curcumin, curcumin]
[4]; 2 μM Curcumin-PC or pure Curcumin, 1 μM Lycomato, 1 μM Lutein, alone or combined, LPS 0.2 μg/ml, 24 h
  inhibition of LPS stimulated NO production: 2±0.4%
[4]; Mus musculus, Macrophage, dose response 0-20 μM, at 15 μM
  inhibition at 15 µM: 75%
[4]; alone, 1 μM and 2 μM
  inhibition of NO production (in words): non-significant inhibitory effect
